In series [1] the test system is Adriamycin-sensitive P388 leukemia cells (P388/S). The experiment in a line: Growth inhibition of cultured Adriamycin-sensitive P388 leukemia cells. The series is classed as cell-based. The following applies: Mus musculus, read-out: IC50 (μg/ml) P388/S. From the text: The substance MH190 of the present invention are capable of inhibiting the growth of cultured Adriamycin-sensitive P388 leukemia cells (P388/S) and Adriamycin-resistant P388 leukemia cells (P388/ADR) in very low concentrations.

The test system of series [2] is Adriamycin-resistant P388 leukemia cells (P388/ADR). The experiment in a line: Growth inhibition of cultured Adriamycin-resistant (multi-drug resistant) P388 leukemia cells. It is filed as cell-based. The following applies: for IC50: Mus musculus, read-out: IC50 (μg/ml) P388/ADR; for Ratio (P388/ADR to P388/S): ratio of IC50 P388/ADR to IC50 P388/S.
Series [3] can be described thus: Stability (physicochemical properties, Table 5). The following applies: light, acid, alkali, silica gel.
Series [4] is described as follows: Solubility in solvents (physicochemical properties, Table 5). As to conditions: for Solubility (1) Soluble: solvents in which the substance is soluble; for Solubility (2) Sparingly soluble: solvents in which the substance is sparingly soluble.
Another series relates to L1210 leukemia cells. The experiment in a line: Anti-tumor activity against intraperitoneally transplanted L1210 leukemia in mice (life prolongation). It is filed as in vivo, CDF1 mice. As to conditions: for Percentage life prolongation: intraperitoneal for 10 days, survival of saline control taken as 100. As to the method: L1210 leukemia cells (1 x 10^5 per animal) were transplanted intraperitoneally into CDF1 mice. Immediately after the transplantation, a solution of MH190 Y2 was injected intraperitoneally for 10 days in a dose of […]. The percentage life prolongation of each of the treated mice was checked and the results are shown below, with the number of days of survival of control mice to which physiological saline had been administered being taken as 100.

A short description of series [5]: Acute toxicity (LD50), single intraperitoneal injection. As to conditions: mouse, in vivo, ip; single intraperitoneal injection into mice.

The text below walks through data of patent EP0191399A2, “Benz[a]anthraquinone compounds, a microbial process for their preparation and their use as medicaments” (priority 1985, dated 1986).

Each structure is given as a SMILES string. ≈ marks a conversion by molar mass, not a printed value. Like-named read-outs stand apart in the source and are kept apart here.

With `COc1cccc2c1C(=O)c1c(O)c3c(c(O)c1C2=O)C[C@@](O)(C(=O)CO)C[C@@H]3O[C@H]1C[C@H](N)[C@H](O)[C@H](C)O1` [Adriamycin, reference compound], the IC50 in series [1] (P388/S) came to 0.012 µg/mL (≈ 0.0221 µM); in series [2] (cultured P388/ADR cells), 0.38 µg/mL (≈ 0.699 µM). Besides, in series [2], the “Ratio (P388/ADR to P388/S)” value is given as 31.7.
On to `CC1OC(OC2CCC(OC3(C)CC(=O)C4(O)C5=C(C=CC4(O)C3)C(=O)c3c(ccc(C4CC(O)C(OC6C=CC(=O)C(C)O6)C(C)O4)c3O)C5=O)OC2C)C=CC1=O` (centres unmarked) [MH190 Y1, Saquayamycin A], for which the IC50 in series [1] (cultured P388/S cells) was 0.067 µg/mL (≈ 0.0816 µM); in series [2] (cultured P388/ADR cells) it was 0.056 µg/mL (≈ 0.0682 µM). Moreover, in series [2], the “Ratio (P388/ADR to P388/S)” value is 0.84. Also, in series [3], the Stability entry was “instable against light, acid and alkali changed to MH190 Y2 on silica gel”. Moreover, the “Solubility (1) Soluble” value in series [4] was “CHCl3, ethyl acetate, butyl acetate, methanol, acetonitrile, acetone, dimethyl sulfoxide”. For the same compound, in series [4], the “Solubility (2) Sparingly soluble” value was “H2O, hexane, petroleum ether”.
`CC1OC(OC2C(O)CC(c3ccc4c(c3O)C(=O)C3=C(C4=O)C4(O)C(=O)CC(C)(O)CC4(O)C=C3)OC2C)C=CC1=O` (centres unmarked) [MH190 Y1-1, Saquayamycin A1]: the IC50 in series [1] (P388/S) turned out to be 0.175 µg/mL (≈ 0.293 µM); in series [2] (P388/ADR), 0.09 µg/mL (≈ 0.151 µM). Moreover, the “Ratio (P388/ADR to P388/S)” value in series [2] was 0.51. In addition, the Stability entry in series [3] was “instable against light, acid and alkali changed to MH190 Y2 on silica gel”. Also, in series [4], the “Solubility (1) Soluble” value is reported as “CHCl3, ethyl acetate, butyl acetate, methanol, acetonitrile, acetone, dimethyl sulfoxide”. Also, in series [4], the “Solubility (2) Sparingly soluble” value was “H2O, hexane, petroleum ether”.
A word on the LD50: it is the dose at which mortality reaches 50%. Consider `CC1OC(OC2CCC(OC3(C)CC(=O)C4(O)C5=C(C=CC4(O)C3)C(=O)c3c(ccc(C4CC6OC7CC(=O)C(C)OC7OC6C(C)O4)c3O)C5=O)OC2C)C=CC1=O` (centres unmarked) [MH190 Y2, Saquayamycin B], for which the figures for the IC50 in series [1] (P388/S) and in series [2] (P388/ADR) were 0.08 µg/mL (≈ 0.0975 µM) and 0.067 µg/mL (≈ 0.0816 µM), respectively. Besides, the “Ratio (P388/ADR to P388/S)” value in series [2] is 0.84. For the same compound, the Percentage life prolongation in the series on L1210 leukemia cells (dose 0.156 mg/Kg/dat) turned out to be 102; in the series with L1210 leukemia cells (dose 0.313 mg/Kg/dat) it was 127; with L1210 leukemia cells (dose 0.625 mg/Kg/dat) it was 120; with L1210 leukemia cells (dose 1.25 mg/Kg/dat) it was 127; in the series with L1210 leukemia cells (dose 2.5 mg/Kg/dat), 151; with L1210 leukemia cells (dose 5 mg/Kg/dat), 175. In the series on L1210 leukemia cells (doses ranging from 0.313 to 5 mg/kg/day), the anti-tumor activities result is listed as “appreciable anti-tumor activities”. Further, the LD50 in series [5] lay in the range of 6.25 to 12.5 mg/kg. The Stability entry in series [3] was “instable against light, acid and alkali”. For the same compound, the “Solubility (1) Soluble” value in series [4] is given as “CHCl3, ethyl acetate, butyl acetate, methanol, acetonitrile, acetone, dimethyl sulfoxide”. The “Solubility (2) Sparingly soluble” value in series [4] was “H2O, hexane, petroleum ether”.
In the case of `CC1OC2OC3C(C)OC(c4ccc5c(c4O)C(=O)C4=C(C5=O)C5(O)C(=O)CC(C)(O)CC5(O)C=C4)CC3OC2CC1=O` (centres unmarked) [MH190 Y2-1, Saquayamycin B1], the IC50 in series [1] (P388/S) worked out at 0.13 µg/mL (≈ 0.218 µM). Further, the IC50 in series [2] (P388/ADR) was 0.074 µg/mL (≈ 0.124 µM). Besides, the “Ratio (P388/ADR to P388/S)” value in series [2] was determined as 0.57. Moreover, the Stability result in series [3] was “instable against light, acid and alkali”. Further, in series [4], the “Solubility (1) Soluble” value was “CHCl3, ethyl acetate, butyl acetate, methanol, acetonitrile, acetone, dimethyl sulfoxide” and the “Solubility (2) Sparingly soluble” value is on record as “H2O, hexane, petroleum ether”.
On to `CC1OC(OC2CCC(OC3(C)CC(=O)C4(O)C5=C(C=CC4(O)C3)C(=O)c3c(ccc(C4CC(O)C(OC6CCC(=O)C(C)O6)C(C)O4)c3O)C5=O)OC2C)CCC1=O` (centres unmarked) [MH190 Y3, Saquayamycin C], for which, in series [1] (P388/S), the IC50 was determined as 0.072 µg/mL (≈ 0.0873 µM). In series [2] (P388/ADR), the IC50 came out at 0.06 µg/mL (≈ 0.0727 µM). Also, in series [2], the “Ratio (P388/ADR to P388/S)” value is 0.83. The Stability entry in series [3] is “instable against light, acid and alkali”. In series [4], the “Solubility (1) Soluble” value is recorded as “CHCl3, ethyl acetate, butyl acetate, methanol, acetonitrile, acetone, dimethyl sulfoxide” and the “Solubility (2) Sparingly soluble” value is given as “H2O, hexane, petroleum ether”.
Take `CC1OC(OC2C(O)CC(c3ccc4c(c3O)C(=O)C3=C(C4=O)C4(O)C(=O)CC(C)(O)CC4(O)C=C3)OC2C)CCC1=O` (centres unmarked) [MH190 Y3-1, Saquayamycin C1]: the Stability entry in series [3] was “instable against light, acid and alkali”. In series [4], the “Solubility (1) Soluble” value was “CHCl3, ethyl acetate, butyl acetate, methanol, acetonitrile acetone, dimethyl sulfoxide” and the “Solubility (2) Sparingly soluble” value is “H2O, hexane, petroleum ether”.
For the compound `CC1OC(OC2CCC(OC3(C)CC(=O)C4(O)C5=C(C=CC4(O)C3)C(=O)c3c(ccc(C4CC6OC7CC(=O)C(C)OC7OC6C(C)O4)c3O)C5=O)OC2C)CCC1=O` (centres unmarked) [MH190 Y4, Saquayamycin D], the IC50 in series [1] (P388/S) was 0.07 µg/mL (≈ 0.0851 µM). Also, in series [2] (P388/ADR), the IC50 came to 0.06 µg/mL (≈ 0.0729 µM). For the same compound, the “Ratio (P388/ADR to P388/S)” value in series [2] was determined as 0.86. Besides, the Stability entry in series [3] was “instable against light, acid and alkali”. Also, in series [4], the “Solubility (1) Soluble” value is given as “CHCl3, ethyl acetate, butyl acetate, methanol, acetonitrile, acetone, dimethyl sulfoxide” and the “Solubility (2) Sparingly soluble” value is “H2O, hexane, petroleum ether”.
